From paper PMC9060465 (Proceedings of the National Academy of Sciences of the …, 2022) come the findings set out here.

In experiment [1] the target is T1, ECD of human GLP-1R (amino acids 24 to 145) (Homo sapiens, UniProt P43220).
T1 construct: GLP-1R (amino acids 24 to 145); 6His; made in house; host or cells: CHO cells
Kind of experiment: GLP-1R extracellular domain binding by surface plasmon resonance. The settings on record: SPR, 1:1 kinetic binding model; representative of n=3. The source says:
DNA encoding each protein was transfected into CHO cells for expression. After expression, the proteins were purified by affinity chromatography (HIS-Trap Ni, Cytiva) followed by size exclusion chromatography using a HiLoad 26/600 Superdex 75pg column (Cytiva) with PBS buffer. […] Surface plasmon resonance measurements were made using a Biacore T200 (Cytiva) and analyzed using T200 Evaluation Software Version 3.1. Receptor ectodomain proteins were covalently immobilized (∼250 resonance units) on Sensor Chip CM4 BR100534 using the Amine coupling Immobilization Wizard in the Biacore T200 Control Software Version 2.0.2. Running buffer was HBS-EP (10 mM Hepes, 150 mM NaCl, 3 mM EDTA, 0.05% P20 [pH 7.6]; Teknova). Concentration series for each sample were made by serial dilution in running buffer. The samples were injected for 150 sec at a 30-µL/min flow rate, followed by 300 sec of dissociation. The surface was regenerated between samples with 10 mM glycine (pH 1.7).
Fig. S10. Receptor extracellular domain (ECD) binding affinity of peptides. Purified GIPR (left column) and GLP-1R (right column) extracellular domains were immobilized to biosensor […]
mM). […]
and efficacy (% Top) of ligands to induce Gα s -GTPγS binding and cAMP accumulation in HEK293 cells expressing GIPR were determined. The equilibrium affinity (KD) of ligands for the immobilized ectodomain of the GIPR were quantified by surface plasmon resonance. […]
(§1) Functional potency (EC50) and efficacy (% Top) of ligands to induce Gα s-GTPγS binding and cAMP accumulation in HEK293 cells expressing GLP-1R were determined. The equilibrium affinity (KD) of ligands for the immobilized ectodomain of the GLP-1R were quantified by surface plasmon resonance. […]
(§2) recruitment to the GLP-1R were determined using the NanoBRET approach. The potency (EC50) and efficacy (% Top) for ligands to induce GLP-1R Internalization were determined using diffusion-enhanced resonance energy transfer. […]
relative efficacy for NanoBRET assays. SPR data were analyzed using T200 evaluation software (Cytiva). […] ND, not determined. […]

Experiment [2] has as its target T2, GLP-1R (Homo sapiens, UniProt P43220). As to the kind of experiment: GRK2 recruitment to the GLP-1R, NanoBRET. The class given is cell-based. On the set-up: expressed in transfected cells; host or cells: freestyle HEK cells. The settings on record: efficacy (% Top), relative to maximal GLP-1; (SEM). The procedure: After 48 h, transfected cells were incubated in phosphate-buffered saline (PBS) containing 0.1% (wt/vol) bovine casein and varying concentrations of the ligands. […]
The potency (EC50) and efficacy (% Top) for ligands to induce GLP-1R Internalization were
determined using diffusion-enhanced resonance energy transfer.
relative efficacy for NanoBRET assays. SPR data were analyzed using T200 evaluation software (Cytiva). All data are presented as geometric means with SEM and n values
(§3) according to established practices. ND, not determined. NA, not applicable.
In general terms: In BRET a luciferase serves as donor, and the signal depends on an acceptor being close.
Target sequence in this assay (P43220 24-463): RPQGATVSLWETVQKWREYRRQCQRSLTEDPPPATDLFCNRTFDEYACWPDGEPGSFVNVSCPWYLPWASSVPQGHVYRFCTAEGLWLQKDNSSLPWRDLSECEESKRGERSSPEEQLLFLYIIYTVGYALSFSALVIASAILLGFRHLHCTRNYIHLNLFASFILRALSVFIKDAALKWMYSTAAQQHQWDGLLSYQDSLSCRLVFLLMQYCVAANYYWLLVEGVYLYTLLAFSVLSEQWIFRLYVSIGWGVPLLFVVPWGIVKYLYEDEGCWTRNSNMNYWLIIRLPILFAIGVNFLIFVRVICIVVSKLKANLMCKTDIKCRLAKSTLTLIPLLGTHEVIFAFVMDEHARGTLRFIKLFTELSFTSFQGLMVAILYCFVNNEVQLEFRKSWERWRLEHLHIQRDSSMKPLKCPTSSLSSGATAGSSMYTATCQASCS
Target sequence in this assay (P25098 whole entry partner): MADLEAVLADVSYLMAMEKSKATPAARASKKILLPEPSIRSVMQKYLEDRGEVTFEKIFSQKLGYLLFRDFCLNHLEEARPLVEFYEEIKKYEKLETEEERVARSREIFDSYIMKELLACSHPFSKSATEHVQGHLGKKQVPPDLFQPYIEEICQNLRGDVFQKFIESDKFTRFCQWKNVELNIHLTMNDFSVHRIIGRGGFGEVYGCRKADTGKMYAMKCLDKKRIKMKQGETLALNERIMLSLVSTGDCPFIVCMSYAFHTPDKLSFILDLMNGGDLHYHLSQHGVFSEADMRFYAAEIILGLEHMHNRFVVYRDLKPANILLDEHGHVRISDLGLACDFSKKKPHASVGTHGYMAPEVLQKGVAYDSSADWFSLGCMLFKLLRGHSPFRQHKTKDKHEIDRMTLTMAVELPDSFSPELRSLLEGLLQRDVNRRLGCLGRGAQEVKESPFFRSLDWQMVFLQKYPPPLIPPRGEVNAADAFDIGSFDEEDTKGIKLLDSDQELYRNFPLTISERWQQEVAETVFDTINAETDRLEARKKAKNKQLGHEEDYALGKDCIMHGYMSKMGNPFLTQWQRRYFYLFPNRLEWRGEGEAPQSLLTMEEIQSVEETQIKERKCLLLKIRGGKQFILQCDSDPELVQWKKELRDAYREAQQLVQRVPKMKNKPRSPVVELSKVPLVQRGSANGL

The target in experiment [3] is T2, GLP-1R. As to the kind of experiment: Ligand-induced GLP-1R internalization, SNAP-GLP-1R HEK293 cells. The class given is cell-based. The settings on record: efficacy (% Top), percent internalization compared to maximal GLP-1; (SEM).
Target sequence in this assay (P43220 24-463): as the sequence (P43220 24-463) above
Experiment [4] has as its target T3, human GIPR (Homo sapiens, UniProt P48546).
T3 construct: expressed in transfected cells; host or cells: HEK293
T3 sequence (P48546 22-466): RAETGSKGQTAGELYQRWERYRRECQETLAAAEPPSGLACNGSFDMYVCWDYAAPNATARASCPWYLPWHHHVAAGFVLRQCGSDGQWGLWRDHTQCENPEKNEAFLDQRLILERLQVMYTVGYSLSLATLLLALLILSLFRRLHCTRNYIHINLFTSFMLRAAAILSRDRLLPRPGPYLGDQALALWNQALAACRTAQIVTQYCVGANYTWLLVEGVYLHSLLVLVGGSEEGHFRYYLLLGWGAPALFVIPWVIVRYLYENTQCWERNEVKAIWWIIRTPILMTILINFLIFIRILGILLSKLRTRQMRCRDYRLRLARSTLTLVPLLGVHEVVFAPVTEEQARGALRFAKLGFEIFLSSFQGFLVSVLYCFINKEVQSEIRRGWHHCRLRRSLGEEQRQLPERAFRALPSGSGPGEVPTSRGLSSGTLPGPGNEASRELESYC
Kind of experiment: [125I]GIP(1-42) competition binding, GIPR-expressing cell membranes. The settings on record: membranes of HEK293 cells expressing human GIPR, albumin-free, geometric mean (SEM, n).
Description: (§4) We note that the albumin-binding propensity of fatty acid-modified peptides can confound a pharmacological comparison of molecules, given the common use of albumin and serum as nonspecific blocking agents in biological assays. Therefore, to obviate this, entirely albumin-free assays supplemented with bovine casein or bacitracin were used to prevent nonspecific binding ([10]).
(§5) Functional potency (EC50)
(§6) and efficacy (% Top) of ligands to induce Gα s -GTPγS binding and cAMP accumulation in HEK293 cells expressing GIPR were determined. The equilibrium affinity (KD) of
(§7) ligands for the immobilized ectodomain of the GIPR were quantified by surface plasmon resonance. […]
(§8) SPR data were analyzed using T200 evaluation software (Cytiva). All data are presented as geometric means with SEM and n values
as §3

Experiment [5] has as its target T2, GLP-1R. As to the kind of experiment: GLP-1R low density cAMP accumulation in HEK293 cells. The class given is cell-based. On the set-up: expressed in transfected cells; host or cells: HEK293. The settings on record: efficacy (% Top), normalized to GLP-1(7-36); (SEM). Here is the method:
(§9) Fig. 4. […] (B) Ligand-induced GTPγS binding of Gαs was performed using the GIPR-expressing membranes. […] (C) Agonist-stimulated cAMP production was measured in human GIPR expressing HEK293 cells. […] (E) Ligand-induced GTPγS binding of Gαs was performed using the GLP-1R-expressing membranes. […] (F) Agonist-stimulated cAMP production was measured in human GLP-1R-expressing HEK293 cells. […] Data presented are representative of n ≥ 3 independent experiments. Summarized data are shown in SI Appendix, Table 2. log M; log Molar.
(§10) We note that the albumin-binding propensity of fatty acid-modified peptides can confound a pharmacological comparison of molecules, given the common use of albumin and serum as nonspecific blocking agents in biological assays. Therefore, to obviate this, entirely albumin-free assays supplemented with bovine casein or bacitracin were used to prevent nonspecific binding ([10]). […]
(§11) Middle Panel: The affinity (Ki) of ligands for the GLP-1R was […]
as §1
(§12) SPR data were analyzed using T200 evaluation software (Cytiva). All data are presented as geometric means with SEM and n values according to established practices. ND, not determined. NA, not applicable.
For orientation: Changes in cAMP serve as a functional read-out for many G protein-coupled receptors.
Target sequence in this assay (P43220 24-463): as the sequence (P43220 24-463) above

The target in experiment [6] is T3, human GIPR. As to the kind of experiment: GIPR low density cAMP accumulation in HEK293 cells. The class given is cell-based. The procedure: as §9, §4, §5, §6, §7, §8, §3
Experiment [7] deals with T2, GLP-1R. Kind of experiment: β-arrestin 1 recruitment to the GLP-1R, NanoBRET. The class given is cell-based. Also on record: expressed in transfected cells. The settings on record: efficacy (% Top), relative efficacy to GLP-1; (SEM). Here is the method:
Functional potency (EC50) […]
and efficacy (% Top) of ligands to induce Gα s -GTPγS binding and cAMP accumulation in HEK293 cells expressing GIPR were determined. The equilibrium affinity (KD) of ligands for the immobilized ectodomain of the GIPR were quantified by surface plasmon resonance. Middle Panel: The affinity (Ki) of ligands for the GLP-1R was […]
as §1, §2
relative efficacy for NanoBRET assays. SPR data were analyzed using T200 evaluation software (Cytiva). All data are presented as geometric means with SEM and n values according to established practices. ND, not determined. NA, not applicable.
Target sequence in this assay (P43220 24-463): as the sequence (P43220 24-463) above
Target sequence in this assay (P49407 whole entry partner): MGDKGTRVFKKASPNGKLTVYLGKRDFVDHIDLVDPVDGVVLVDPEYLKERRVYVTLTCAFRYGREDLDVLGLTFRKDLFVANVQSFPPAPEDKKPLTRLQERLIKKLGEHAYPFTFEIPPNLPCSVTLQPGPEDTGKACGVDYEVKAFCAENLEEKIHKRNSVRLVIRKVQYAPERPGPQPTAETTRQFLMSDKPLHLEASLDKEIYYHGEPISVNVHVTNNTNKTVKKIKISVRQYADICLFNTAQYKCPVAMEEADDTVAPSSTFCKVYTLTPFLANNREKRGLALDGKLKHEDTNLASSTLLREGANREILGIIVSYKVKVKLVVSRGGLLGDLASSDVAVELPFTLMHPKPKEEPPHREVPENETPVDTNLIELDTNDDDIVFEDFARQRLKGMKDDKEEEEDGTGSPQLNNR

For experiment [8], the target named is T2, GLP-1R. Kind of experiment: GLP-1R Gαs [35S]GTPγS binding, GLP-1R-expressing membranes. The class given is biochemical. On the set-up: expressed in transfected cells; host or cells: HEK293. The settings on record: efficacy (% Top), normalized to GLP-1(7-36); (SEM). Here is the method: as §9, §10, §11, §1, §12
(In general: GTPγS resists hydrolysis and so accumulates on activated G proteins.)
Target sequence in this assay (P43220 24-463): as the sequence (P43220 24-463) above

The target of experiment [9] is T3, human GIPR. As to the kind of experiment: GIPR Gαs [35S]GTPγS binding, GIPR-expressing membranes. The class given is biochemical. The settings on record: Gαs-GTPγS binding, GIPR-expressing membranes; albumin-free; geometric mean (SEM, n); read-out: GIPR GTPγS Recruitment EC50. The procedure:
as §9, §4, §5, §6, §7, §8, §3

Usually Ki stands for the equilibrium dissociation constant of an inhibitor or competing ligand from its target. Low values mean a stronger hold on the target, high ones a looser hold on the target. One may read the EC50 as the concentration that produces a half-maximal response.

T1 sequence (P43220 24-145): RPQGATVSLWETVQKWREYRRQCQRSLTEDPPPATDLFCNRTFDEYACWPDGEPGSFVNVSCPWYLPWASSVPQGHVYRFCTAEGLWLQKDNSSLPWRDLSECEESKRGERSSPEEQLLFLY

Regarding `CC[C@H](C)[C@H](NC(=O)[C@H](CO)NC(=O)[C@H](Cc1ccc(O)cc1)NC(=O)[C@H](CC(=O)O)NC(=O)[C@H](CO)NC(=O)[C@@H](NC(=O)[C@H](Cc1ccccc1)NC(=O)[C@@H](NC(=O)CNC(=O)[C@H](CCC(=O)O)NC(=O)[C@H](C)NC(=O)[C@@H](N)Cc1ccc(O)cc1)[C@@H](C)O)[C@@H](C)CC)C(=O)N[C@@H](C)C(=O)N[C@@H](CCSC)C(=O)N[C@@H](CC(=O)O)C(=O)N[C@@H](CCCCN)C(=O)N[C@H](C(=O)N[C@@H](Cc1c[nH]cn1)C(=O)N[C@@H](CCC(N)=O)C(=O)N[C@@H](CCC(N)=O)C(=O)N[C@@H](CC(=O)O)C(=O)N[C@@H](Cc1ccccc1)C(=O)N[C@H](C(=O)N[C@@H](CC(N)=O)C(=O)N[C@@H](Cc1c[nH]c2ccccc12)C(=O)N[C@@H](CC(C)C)C(=O)N[C@@H](CC(C)C)C(=O)N[C@@H](C)C(=O)N[C@@H](CCC(N)=O)C(=O)N[C@@H](CCCCN)C(=O)NCC(=O)N[C@@H](CCCCN)C(=O)N[C@@H](CCCCN)C(=O)N[C@@H](CC(N)=O)C(=O)N[C@@H](CC(=O)O)C(=O)N[C@@H](Cc1c[nH]c2ccccc12)C(=O)N[C@@H](CCCCN)C(=O)N[C@@H](Cc1c[nH]cn1)C(=O)N[C@@H](CC(N)=O)C(=O)N[C@H](C(=O)N[C@H](C(=O)N[C@@H](CCC(N)=O)C(N)=O)[C@@H](C)O)[C@@H](C)CC)C(C)C)[C@@H](C)CC` [GIP, reference compound], the “GLP-1R ECD kinetic KD” value in [1] is listed as “No kinetic fit possible”.
Regarding `CC[C@H](C)[C@H](NC(=O)[C@H](Cc1ccccc1)NC(=O)[C@H](CCC(=O)O)NC(=O)[C@H](CCCCN)NC(=O)[C@H](C)NC(=O)[C@H](C)NC(=O)[C@H](CCC(N)=O)NC(=O)CNC(=O)[C@H](CCC(=O)O)NC(=O)[C@H](CC(C)C)NC(=O)[C@H](Cc1ccc(O)cc1)NC(=O)[C@H](CO)NC(=O)[C@H](CO)NC(=O)[C@@H](NC(=O)[C@H](CC(=O)O)NC(=O)[C@H](CO)NC(=O)[C@@H](NC(=O)[C@H](Cc1ccccc1)NC(=O)[C@@H](NC(=O)CNC(=O)[C@H](CCC(=O)O)NC(=O)[C@H](C)NC(=O)[C@@H](N)Cc1ccc(O)cc1)[C@@H](C)O)[C@@H](C)O)C(C)C)C(=O)N[C@@H](C)C(=O)N[C@@H](Cc1c[nH]c2ccccc12)C(=O)N[C@@H](CC(C)C)C(=O)N[C@H](C(=O)N[C@@H](CCCCN)C(=O)NCC(=O)N[C@@H](CCCNC(=N)N)C(N)=O)C(C)C` [GLP-1 H7Y, reference compound], the “GLP-1R GRK2 Recruitment Top” value at GLP-1R [2] was 54.5 (2.1) %. Besides, the “GLP-1R Internalization Top” value at GLP-1R [3] is given as 73.1 (3.4) %. On human GIPR [4], the Ki is more than 128 nM. Further, the “GLP-1R Low Density cAMP Top” value at GLP-1R [5] is reported as 104 (4) %. Besides, the concentration for a half-maximal effect (EC50) is more than 4000 nM on human GIPR [6] (cAMP accumulation, HEK293 cells expressing GIPR, albumin-free, geometric mean (SEM, n)) and more than 1000 nM on human GIPR [9]. For the same molecule, the “GIPR Low Density cAMP Top” value at human GIPR [6] (efficacy (% Top), normalized to GIP(1-42), (SEM)) is recorded as 39.4(9.5) %. Further, the “GLP-1R β-Arr1 Recruitment Top” value on GLP-1R [7] is given as 35.3 (3.8) %. Also, the “GLP-1R GTPγS Recruitment Top” value at GLP-1R [8] is on record as 80.7 (2.2) %.
